This note sets out measurements from ChEMBL document CHEMBL5338744, “Development and Characterization of Benzoselenazole Derivatives as Potent and Selective c-MYC Transcription Inhibitors” (J Med Chem, 2023).

pIC50, pKd: −log10 of the molar value. Activity calls are given as the source filed them. The rule behind the calls is not given here.

The first data set deals with Quadruplex DNA. In words: Binding affinity to G-quadruplex DNA pu22 (unknown origin) by fluorescence spectroscopic analysis. The class given is nucleic-acid assay.
Conditions: not given
The compound `CCn1c2ccccc2c2cc(/C=C/c3[se]c4ccccc4[n+]3C)ccc21` had a pKd of 6.40.

In a further data set the test system is HepG2. In words: Cytotoxicity against human HepG2 cells assessed as reduction in cell viability incubated for 48 hrs by MTT assay. It is filed as functional, cell-based. Conditions: HepG2, 48 h.
`C(=C\c1nc2ccccc2s1)/c1ccc2c(c1)c1ccccc1n2Cc1ccccc1`: the pIC50 is 4.27.
As for `CCn1c2ccccc2c2cc(/C=C/c3[se]c4ccccc4[n+]3C)ccc21`, the negative-log IC50 (pIC50) is 5.80.

For a further data set, the system named is HCT-116. Briefly: Cytotoxicity against human HCT-116 cells assessed as reduction in cell viability incubated for 48 hrs by MTT assay. It is filed as functional, cell-based. Conditions: HCT-116, 48 h.
With `C(=C\c1nc2ccccc2s1)/c1ccc2c(c1)c1ccccc1n2Cc1ccccc1`, the pIC50 was under 4.00.
With `CCn1c2ccccc2c2cc(/C=C/c3[se]c4ccccc4[n+]3C)ccc21`, the pIC50 is 5.47.

System in a further data set: not listed separately
In words: Cytotoxicity against human NCM460 cells assessed as reduction in cell viability incubated for 48 hrs by MTT assay. It is filed as toxicity, cell-based.
Conditions: not given
Consider `C(=C\c1nc2ccccc2s1)/c1ccc2c(c1)c1ccccc1n2Cc1ccccc1`, for which the IC50 at 48 h is over 100 µM.
`CCn1c2ccccc2c2cc(/C=C/c3[se]c4ccccc4[n+]3C)ccc21`: the IC50 at 48 h came to 29.2 µM.

The next data set addresses Quadruplex DNA. Briefly: Binding affinity to G-quadruplex DNA pu22 mutant (unknown origin) by fluorescence spectroscopic analysis. The class given is nucleic-acid assay.
Conditions: not given
Compound `CCn1c2ccccc2c2cc(/C=C/c3[se]c4ccccc4[n+]3C)ccc21` had a pKd of under 4.70.

For the next data set, the target named is Quadruplex DNA. In words: Binding affinity to G-quadruplex DNA c-kit1 (unknown origin) by fluorescence spectroscopic analysis. The class given is nucleic-acid assay.
Conditions: not given
Consider `CCn1c2ccccc2c2cc(/C=C/c3[se]c4ccccc4[n+]3C)ccc21`, for which the pKd is 5.19.

The next data set has as its target Quadruplex DNA. In words: Binding affinity to G-quadruplex DNA VEGF (unknown origin) by fluorescence spectroscopic analysis.
Conditions: not given
It is filed as nucleic-acid assay.
Consider `CCn1c2ccccc2c2cc(/C=C/c3[se]c4ccccc4[n+]3C)ccc21`, for which the pKd is 5.12.

A further data set has as its target Quadruplex DNA. Briefly: Binding affinity to G-quadruplex DNA HRAS (unknown origin) by fluorescence spectroscopic analysis. The class given is nucleic-acid assay.
Conditions: not given
Regarding `CCn1c2ccccc2c2cc(/C=C/c3[se]c4ccccc4[n+]3C)ccc21`, the pKd is under 4.70.

The target of the next data set is Quadruplex DNA. In words: Binding affinity to G-quadruplex DNA htg22 (unknown origin) by fluorescence spectroscopic analysis.
Conditions: not given
The class given is nucleic-acid assay.
Compound `CCn1c2ccccc2c2cc(/C=C/c3[se]c4ccccc4[n+]3C)ccc21` had a pKd of 5.06.

In the next data set the target is Quadruplex DNA. In words: Binding affinity to G-quadruplex DNA ds26 (unknown origin) by fluorescence spectroscopic analysis. The class given is nucleic-acid assay.
Conditions: not given
`CCn1c2ccccc2c2cc(/C=C/c3[se]c4ccccc4[n+]3C)ccc21` had a pKd of under 4.70.

A further data set deals with HepG2. Briefly: Inhibition of c-MYC transcription in human HepG2 cells up to 10 uM incubated for 48 hrs by RT-qPCR analysis. The class given is functional, cell-based.
Conditions: not given
With `CCn1c2ccccc2c2cc(/C=C/c3[se]c4ccccc4[n+]3C)ccc21`, the inhibition result is “Active”.

For another data set, the system named is HepG2. In words: Downregulation of c-MYC expression level in human HepG2 cells incubated for 48 hrs by Western blotting analysis. It is filed as functional, cell-based. The note with it: dose 0-10 µM.
`CCn1c2ccccc2c2cc(/C=C/c3[se]c4ccccc4[n+]3C)ccc21`: the Activity result is “Dose-Dependent Effect”.

System in another data set: not listed separately
Briefly: Cytotoxicity against human L02 cells assessed as reduction in cell viability incubated for 48 hrs by MTT assay. The class given is toxicity, cell-based.
Conditions: not given
As to `CCn1c2ccccc2c2cc(/C=C/c3[se]c4ccccc4[n+]3C)ccc21`, the IC50 at 48 h worked out at 27.3 µM.

For another data set, the system named is Quadruplex DNA. Briefly: Binding affinity to G-quadruplex DNA pu22 (unknown origin) assessed as melting temperature at 10 uM by circular dichroism analysis.
Conditions: not given
As to `CCn1c2ccccc2c2cc(/C=C/c3[se]c4ccccc4[n+]3C)ccc21`, the Tm was 80.1 °C.
